We go through five compounds from BindingDB's records for doi:10.1002/cbic.200800704 (Antibiotics Laboratory, 2009).

In this test the target is Carbonic anhydrase 2 (Homo sapiens, UniProt P00918). Description: Inhibition Assay. The note with it: pH 8.4. As for the experimental part:
Inhibitory activity of the compounds for CAII was measured and IC50 values were calculated from independent triplicated experiments. Kd values were obtained by ITC analysis.
As to `NS(=O)(=O)c1ccc(F)cc1` [4-Fuloro sulfonamide, C], the IC50 was 203 nM and the Kd amounted to 435 nM.

`NS(=O)(=O)c1ccc(N2CCN(Cc3ccncc3)CC2)cc1` [Piperazine moiety, 3] registered an IC50 of 48 nM and a Kd of 29 nM.

In the case of `NS(=O)(=O)c1ccc(N2CCNCC2)cc1` [Piperazine moiety, 4], the 50% inhibitory concentration (IC50) amounted to 299 nM and binding was characterised by a dissociation constant (Kd) of 426 nM.

Take `NS(=O)(=O)c1ccc(N2CCN(CCO)CC2)cc1` [Piperazine moiety, 5]: half-maximal inhibition (IC50) was put at 137 nM and the Kd was 208 nM.

`NS(=O)(=O)c1ccc(N2CCN(C(=O)c3ccncc3)CC2)cc1` [Piperazine moiety, 6] displayed an IC50 of 72 nM and a dissociation constant (Kd) of 100 nM.
